{"source": "paper PMC11110727", "about": "“Exploiting thiol-functionalized benzosiloxaboroles for achieving diverse substitution patterns – synthesis, characterization and biological evaluation of promising antibacterial agents” (RSC Medicinal Chemistry, 2024)", "key": {"S. aureus ATCC 6538P": {"tested_on": "S. aureus ATCC 6538P", "assay": "Antibacterial activity: MIC/MBC determination and disc-diffusion", "type": "cell-based, Staphylococcus aureus", "conditions": "S. aureus ATCC 6538P", "method": "(§1) Direct antimicrobial activity was determined against the following standard strains: (1) Gram-positive cocci: methicillin-sensitive Staphylococcus aureus ATCC 6538P (MSSA), methicillin-resistant S. aureus subsp. aureus ATCC 43300 (MRSA), S. epidermidis ATCC 12228, Enterococcus faecium ATCC 6057, E. faecalis ATCC 29212, Bacillus subtilis ATCC 6633; (2) Gram-negative bacteria from Enterobacteriales order: Klebsiella pneumoniae ATCC 13883, Escherichia coli ATCC 25922, Enterobacter cloacae DSM 6234, Proteus mirabilis ATCC 12453, Serratia marcescens ATCC 13880; (3) Gram-negative non-fermentative rods: Acinetobacter baumannii ATCC 19606, Pseudomonas aeruginosa ATCC 27853, Stenotrophomonas maltophilia ATCC 12714, S. maltophilia ATCC 13637, Burkholderia cepacia ATCC 25416, Bordetella bronchiseptica ATCC 4617; (4) yeasts: Candida albicans ATCC 90028, C. krusei ATCC 6258, C. parapsilosis ATCC 22019, C. tropicalis (Castellani) Berkhout ATCC 750, C. tropicalis IBA 171, C. guilliermondii IBA 155, and Saccharomyces cerevisiae ATCC 9763. Moreover, 5 clinical strains of methicillin-resistant S. aureus were also included: NMI 664 K, NMI 1576 K, NMI 1712 K, NMI 1991 K, and NMI 2541 K. All strains were stored at −80 °C. Prior to testing, each bacterial strain was subcultured twice on tryptic soy agar TSA (bioMerieux) medium and yeast strains on Sabouraud dextrose agar (bioMerieux) for 24–48 h at 30 °C to ensure viability. The antimicrobial activity was evaluated as previously described[26] by the disc-diffusion method and the MIC determination assays according to the EUCAST (ref. [71] and [72]) and CLSI (ref. [53] and [73]) recommendations. Assessment of bactericidal (MBC) and fungicidal (MFC) activities was performed according to the CLSI recommendations.[54,74] The following reference agents were used: fluconazole (in the case of fungi), linezolid (for Gram-positive bacteria), and nitrofurantoin (for Gram-negative rods). The new benzosiloxaboroles were dissolved in DMSO (Sigma)."}, "E. faecalis ATCC 29212": {"tested_on": "E. faecalis ATCC 29212", "assay": "Antibacterial activity: MIC/MBC determination and disc-diffusion", "type": "cell-based", "conditions": "Enterococcus faecalis, ATCC29212, E. faecalis ATCC 29212", "method": "as §1"}, "E. faecium ATCC 6057": {"tested_on": "E. faecium ATCC 6057", "assay": "Antibacterial activity: MIC/MBC determination and disc-diffusion", "type": "cell-based", "conditions": "Enterococcus faecium, ATCC6057, E. faecium ATCC 6057", "method": "as §1"}, "[1]": {"tested_on": "S. aureus ATCC 43300 MRSA", "assay": "Antibacterial activity: MIC/MBC determination and disc-diffusion", "type": "cell-based", "conditions": "Staphylococcus aureus, S. aureus ATCC 43300 MRSA", "method": "as §1"}, "[2]": {"tested_on": "S. epidermidis ATCC 12228", "assay": "Antibacterial activity: MIC/MBC determination and disc-diffusion", "type": "cell-based", "conditions": "Staphylococcus epidermidis, ATCC12228, S. epidermidis ATCC 12228", "method": "as §1"}, "[3]": {"tested_on": "S. aureus NMI 1576 K MRSA", "assay": "Antibacterial activity against clinical MRSA: MIC/MBC", "type": "cell-based", "conditions": "Staphylococcus aureus, NMI 1576 K MRSA", "method": "as §1"}, "[4]": {"tested_on": "S. aureus NMI 1712 K MRSA", "assay": "Antibacterial activity against clinical MRSA: MIC/MBC", "type": "cell-based", "conditions": "Staphylococcus aureus, NMI 1712 K MRSA", "method": "as §1"}, "[5]": {"tested_on": "S. aureus NMI 1991 K MRSA", "assay": "Antibacterial activity against clinical MRSA: MIC/MBC", "type": "cell-based", "conditions": "Staphylococcus aureus, NMI 1991 K MRSA", "method": "as §1"}, "[6]": {"tested_on": "S. aureus NMI 2541 K MRSA", "assay": "Antibacterial activity against clinical MRSA: MIC/MBC", "type": "cell-based", "conditions": "Staphylococcus aureus, NMI 2541 K MRSA", "method": "as §1"}, "S. aureus NMI 664 K MRSA": {"tested_on": "S. aureus NMI 664 K MRSA", "assay": "Antibacterial activity against clinical MRSA: MIC/MBC", "type": "cell-based", "conditions": "Staphylococcus aureus, NMI 664 K MRSA", "method": "as §1"}, "[7]": {"tested_on": "Human normal lung fibroblasts MRC-5", "assay": "MTT-based viability (cytotoxicity) assay", "conditions": "Homo sapiens, MRC5, 48 h", "method": "To evaluate the cytotoxic effect of the tested compounds, an MTT-based assay was performed. […] Moreover, based on available IC50 and MIC (for standard and clinical S. aureus MRSA strains) values, the selectivity index (SI) was calculated for several compounds as the IC50/MIC ratio (Table 5).[60]\nMRC-5 pd30 human fibroblasts (ECACC) were cultured in MEME, Minimum Essential Medium Eagle (Merck), supplemented with 10% fetal bovine serum (Merck), 2 mM L-glutamine, antibiotics (100 U mL^−1 penicillin, 100 μg mL^−1 streptomycin, Merck) and 1% non-essential amino acids (Merck). Cells were grown in 75 cm^2 cell culture flasks (Sarstedt), in a humidified atmosphere of CO2/air (5/95%) at 37 °C. MTT-based viability assay was conducted as described previously.[26] Optical densities were measured at 570 nm using a BioTek microplate reader. All measurements were carried out in three replicates and the results expressed as a percent of viable cells versus control cells. […] The selectivity index (SI) was calculated as [drawing 30] , in accordance with previously described protocols.[60]"}, "S. aureus MRSA LeuRS": {"molecular_target": "T1, S. aureus MRSA LeuRS (Staphylococcus aureus, UniProt P67513)", "T1 construct": "The LeuRS gene from MRSA (PW-71) was amplified by PCR; made in house; host or cells: E. coli BL21(DE3)pLys", "T1 sequence (P67513 whole entry)": "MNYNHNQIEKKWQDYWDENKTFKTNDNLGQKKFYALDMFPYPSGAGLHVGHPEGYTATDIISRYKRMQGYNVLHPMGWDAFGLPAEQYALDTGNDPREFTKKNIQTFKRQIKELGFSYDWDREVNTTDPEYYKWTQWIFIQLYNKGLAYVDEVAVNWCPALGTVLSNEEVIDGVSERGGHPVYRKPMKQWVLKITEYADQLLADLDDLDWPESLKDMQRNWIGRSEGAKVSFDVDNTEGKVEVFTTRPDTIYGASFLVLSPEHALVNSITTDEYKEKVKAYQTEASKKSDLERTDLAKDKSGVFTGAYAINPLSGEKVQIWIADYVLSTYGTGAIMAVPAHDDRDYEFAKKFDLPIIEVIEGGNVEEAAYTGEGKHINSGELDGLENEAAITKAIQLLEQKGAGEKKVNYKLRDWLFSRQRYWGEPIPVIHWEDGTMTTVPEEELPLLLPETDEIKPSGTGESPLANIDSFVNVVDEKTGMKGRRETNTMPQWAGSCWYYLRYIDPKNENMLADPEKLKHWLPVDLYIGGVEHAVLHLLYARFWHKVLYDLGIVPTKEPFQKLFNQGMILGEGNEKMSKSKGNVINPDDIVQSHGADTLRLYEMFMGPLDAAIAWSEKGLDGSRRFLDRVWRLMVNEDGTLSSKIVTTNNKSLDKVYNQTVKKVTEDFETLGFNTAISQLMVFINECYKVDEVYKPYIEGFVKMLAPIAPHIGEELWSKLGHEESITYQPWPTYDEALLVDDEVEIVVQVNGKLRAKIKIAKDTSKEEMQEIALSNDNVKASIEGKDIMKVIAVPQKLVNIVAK", "assay": "In vitro aminoacylation (enzyme inhibition) assay", "type": "biochemical", "conditions": "read-out: residual activity of S. aureus MRSA LeuRS", "method": "We have undertaken research devoted to determining the most probable mechanism of antibacterial action. […] Considering structural similarity to benzoxaboroles we assumed that benzosiloxaboroles are active through this mechanism. Our working hypothesis was supported by the fact that benzosiloxaboroles are rather bacteriostatic than bactericidal,[26,27] which is consistent with the specificity of the OBORT mechanism. The enzyme inhibition assay was performed for compound 20 as it features high activity against S. aureus MRSA strains and the respective favorable SI = 19.5 (Table 5). […] We obtained S. aureus MRSA LeuRS in the E. coli expression system. From 400 mL culture, approximately 20 mg of 6× His tagged LeuRS (with a molecular mass of 92.3 kDa) was purified to more than 90% homogeneity, which was confirmed by sodium dodecylsulfate-polyacrylamide gel electrophoresis (SDS-PAGE; Fig. S2, ESI ^†). Next, we used an in vitro aminoacylation assay to investigate the ability of 20 to inhibit S. aureus MRSA LeuRS activity consistent with affecting the transfer of the ^14C-radiolabeled leucine to a total tRNA. […] (residual activity 30.8% at 25 μM).\nThe LeuRS gene from MRSA (PW-71) was amplified by PCR using the following primers: 5′-[…]-3′ and 5′-[…]-3′. The amplified leuRS was digested with BamHI and NotI and ligated into pETDuet-1 vector (Novagen) which carries an N-terminal His tag. After sequencing, the pETDuet1-leuRS plasmid was transformed into E. coli BL21(DE3)pLys cells, which were then grown overnight in 20 mL of Luria–Bertani (LB) medium containing 100 μg mL^−1 ampicillin and 30 μg mL^−1 chloramphenicol. Then the overnight culture was inoculated into 400 mL of Super Broth medium containing ampicillin and chloramphenicol at the same concentration, and the cells were grown until the OD600 reached 0.6. […] The protein concentration in the final solution was 2.86 mg mL^−1 (determined by the Bradford method and bovine serum albumin as a standard).[78] […]"}, "[8]": {"conditions": "read-out: MBC (first MBC where Eagle effect)"}}, "data": [{"smiles": "CC(=O)NC[C@H]1CN(c2ccc(N3CCOCC3)c(F)c2)C(=O)O1", "note": "[LIN, linezolid, reference compound]", "values": [{"measurement": "diameter of inhibition zone", "setting": "S. aureus ATCC 6538P; disc-diffusion, — = zone not observed", "result": 25, "unit": "mm"}, {"measurement": "MBC", "setting": "S. aureus ATCC 6538P; Staphylococcus aureus, ATCC6538P, read-out: MBC (first MBC where Eagle effect)", "result": "> 128", "unit": "µg/mL"}, {"measurement": "MIC", "setting": "S. aureus ATCC 6538P; Staphylococcus aureus, ATCC6538P, read-out: MIC", "result": 1, "unit": "µg/mL"}, {"measurement": "MBC", "setting": "E. faecalis ATCC 29212", "result": "> 128", "unit": "µg/mL"}, {"measurement": "MIC", "setting": "E. faecalis ATCC 29212; read-out: MIC", "result": 2, "unit": "µg/mL"}, {"measurement": "MBC", "setting": "E. faecium ATCC 6057", "result": "> 128", "unit": "µg/mL"}, {"measurement": "MIC", "setting": "E. faecium ATCC 6057; read-out: MIC", "result": 2, "unit": "µg/mL"}, {"measurement": "MBC", "setting": "[1]; [8]", "result": "> 128", "unit": "µg/mL"}, {"measurement": "MIC", "setting": "[1]; read-out: MIC", "result": 2, "unit": "µg/mL"}, {"measurement": "MBC", "setting": "[2]", "result": "> 128", "unit": "µg/mL"}, {"measurement": "MIC", "setting": "[2]; read-out: MIC", "result": 1, "unit": "µg/mL"}, {"measurement": "MBC", "setting": "[3]; [8]", "result": "> 128", "unit": "µg/mL"}, {"measurement": "MIC", "setting": "[3]; read-out: MIC", "result": 1, "unit": "µg/mL"}, {"measurement": "MBC", "setting": "[4]; [8]", "result": "> 128", "unit": "µg/mL"}, {"measurement": "MIC", "setting": "[4]; read-out: MIC", "result": 1, "unit": "µg/mL"}, {"measurement": "MBC", "setting": "[5]; [8]", "result": "> 128", "unit": "µg/mL"}, {"measurement": "MIC", "setting": "[5]; read-out: MIC", "result": 1, "unit": "µg/mL"}, {"measurement": "MBC", "setting": "[6]; [8]", "result": "> 128", "unit": "µg/mL"}, {"measurement": "MIC", "setting": "[6]; read-out: MIC", "result": 1, "unit": "µg/mL"}, {"measurement": "MBC", "setting": "S. aureus NMI 664 K MRSA; [8]", "result": "> 128", "unit": "µg/mL"}, {"measurement": "MIC", "setting": "S. aureus NMI 664 K MRSA; read-out: MIC", "result": 1, "unit": "µg/mL"}, {"measurement": "IC50", "setting": "[7]", "result": "> 400", "unit": "µg/mL"}]}, {"smiles": "Nc1ccc(S(=O)(=O)Nc2ccc3c(c2)B(O)OC3)cc1", "note": "[PT662, reference compound]", "values": [{"measurement": "remaining activity at 25 µM", "setting": "S. aureus MRSA LeuRS", "result": 30.8, "unit": "%"}]}]}
